The values that follow come from US6376506B1, “Sulfamide-metalloprotease inhibitors” (Syntex (U.S.A.) LLC, priority 1997, dated 2002).

By melting point is commonly meant the temperature of the solid-liquid transition. As a reminder, the IC50 is the concentration that gives 50% inhibition.

Structures are written as SMILES. Counter-ions that a name gives are not always drawn.

In series [1] the target is T1, human collagenase-1 catalytic domain (Homo sapiens, UniProt P03956).
T1 construct: the collagenase-1 catalytic domain was released by treatment with 1 mM of aminophenylmercuric acetate (APMA); ubiquitin (cleaved yes); made in house; host or cells: E. coli
T1 sequence (P03956 100-269 limits assumed): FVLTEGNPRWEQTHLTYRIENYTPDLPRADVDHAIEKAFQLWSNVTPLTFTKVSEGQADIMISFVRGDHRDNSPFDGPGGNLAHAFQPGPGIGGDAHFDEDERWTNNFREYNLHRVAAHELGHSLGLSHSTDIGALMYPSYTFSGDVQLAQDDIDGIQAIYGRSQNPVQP
Description: MMP inhibition in vitro, human collagenase-1. The class given is biochemical. The note with it: MCA-Pro-Leu-Gly-Leu-DPA-Ala-Arg-NH2 hydrolysis at 37° C.; read-out: Collagenase-I IC50. As for the experimental part: The catalytic domain of human collagenase-1 was expressed as a fusion protein with ubiquitin in E. Coli as described in Gehring, E. R. et al., J. Biol. Chem., 270, 22507, (1995). After purification of the fusion protein, the collagenase-1 catalytic domain was released by treatment with 1 mM of aminophenylmercuric acetate (APMA) for 1 hour at 37° C. and then purified by zinc chelate chromatography.
(§1) The matrix metalloprotease inhibitory activity of compounds of this invention in vitro was determined based on the hydrolysis of MCA-Pro-Leu-Gly-Leu-DPA-Ala-Arg-NH2 (Bachem, Inc.) at 37° C. as described in Knight, C. G., et al., FEBS Lett., 296, 263-266 (1992).
(§2) The matrix metalloprotease enzyme was diluted with assay buffer (50 mM Tricine pH 7.5, 200 mM NaCl, 10 mM CaCl2, and 0.005% Brij-35) containing 10 μmole of above substrate dissolved in DMSO. Compounds of the invention dissolved in DMSO or only DMSO (control samples) were added such that the final DMSO concentration in all assays was 2.5%. The fluorescence changes were monitored with a Perkin-Elmer LS-50B flourimeter using an excitation wavelength of 328 nm and an emission wavelength of 393 nm.

The target in series [2] is T2, human collagenase-3 catalytic domain (Homo sapiens, UniProt P45452).
T2 construct: After purification, the catalytic domain was released by treatment with 1 mM APMA for 1 hour at 37° C; ubiquitin (N, cleaved yes); made in house; host or cells: E. coli
Briefly: MMP inhibition in vitro, human collagenase-3. Type of series: biochemical. As to conditions: MCA-Pro-Leu-Gly-Leu-DPA-Ala-Arg-NH2 hydrolysis at 37° C.; read-out: Collagenase-III IC50. How it is done: The propeptide and catalytic domain portion of human collagcenase-3 was expressed in E. Coli as an N-terminal fusion protein with ubiquitin. After purification, the catalytic domain was released by treatment with 1 mM APMA for 1 hour at 37° C., and then purified by zinc chelate chromatography.
as §1, §2

For `CC(NS(=O)(=O)N1CCc2c([nH]c3ccccc23)C1)C(=O)[O-].[Na+]` (stereo not shown), the melting point is 209 to 211 °C (dec.).

Take `COCCN(CC(=O)NO)S(=O)(=O)N1CCN(c2ccc(Cl)cc2)CC1` (as salt: TFA) [compound 16]: the melting point lay in the range of 54.1 to 57.7 °C.

With `O=C(NO)C1CCCCN1S(=O)(=O)N1CCC(c2c[nH]c3ccc(F)cc23)CC1` (racemic) [compound 254], the values for the IC50 in series [1] and in series [2] were above 50000 nM and 181 nM, respectively.

`CC(=O)N1CCN(S(=O)(=O)N2CCC(C(=O)c3ccc(Cl)cc3)CC2)C(C(=O)NO)C1` (racemic) [compound 255]: the IC50 is 120 nM in series [1] and 0.19 nM in series [2].

On to `O=C(NO)C1CCCCN1S(=O)(=O)N1CCC(c2c[nH]c3cc(Cl)ccc23)CC1` (racemic) [compound 256], for which the melting point lay in the range of 143 to 151 °C. Further, the IC50 in series [1] is 26000 nM. Further, in series [2], the IC50 is 33 nM.

Turning to `O=CN1CCN(S(=O)(=O)N2CCC(C(=O)c3ccc(Cl)cc3)CC2)C(C(=O)NO)C1` (racemic) [compound 262], the IC50 in series [1] stood at 88 nM; in series [2], 0.13 nM.

Compound `O=C(NO)C1CCCCN1S(=O)(=O)N1CCC(c2noc3cc(F)ccc23)CC1` (racemic) [compound 286] yielded a melting point of 145.8 to 146.9 °C. Also, the IC50 in series [1] came out at 29 nM. The IC50 in series [2] worked out at 0.063 nM.

With `O=C(NO)C1CCCCN1S(=O)(=O)N1CC=C(c2ccc(Cl)cc2)CC1` (racemic) [compound 375, N-hydroxy-1-[4-(4-chlorophenyl)-1,2,3,6-tetrahydropyridine-1-sulfonyl]piperidine-2-(RS)-carboxamide], the melting point fell in the range of 137.8 to 138.1 °C.

Compound `Cc1cc(C2=CCN(S(=O)(=O)N3CCN(C(=O)OCc4ccccc4)CC3C(=O)NO)CC2)ccc1F` (racemic) [compound 381, N-hydroxy-4-benzyloxycarbonyl-1-[4-(4-fluoro-3-methylphenyl)-1,2,3,6-tetrahydropyridine-1-sulfonyl]piperazine-2-(RS)-carboxamide] showed a melting point of 67 to 70 °C.

Regarding `COCCN(CC(=O)NO)S(=O)(=O)N1CCN(c2ccc(Cl)cc2)CC1` [compound 16], the concentration for half-maximal inhibition (IC50) in series [1] is 22000 nM; in series [2], 21 nM.

In turn, `O=C(CNS(=O)(=O)N1CCN(c2cccc(Cl)c2)CC1)NO` [compound 33, N-hydroxy-2-{[4-(3-chlorophenyl)piperazine-1-sulfonyl]amino}acetamide] displayed a melting point of 138.1 to 138.6 °C.

Take `C[C@@H](NS(=O)(=O)N1CCC(Oc2ccc(Cl)cc2)CC1)C(=O)NO` [compound 57, N-hydroxy-2-(R)-{[4-(4-chlorophenoxy)piperidine-1-sulfonyl]amino}propionamide]: the melting point fell in the range of 93 to 94 °C.

Compound `CC(C)(C)[C@@H](NS(=O)(=O)N1CCN(c2ccc(Cl)cc2)CC1)C(=S)NO` [compound 62, N-hydroxy-2-(R)-{[4-(4-chlorophenyl)piperazine-1-sulfonyl]amino}-3-methyl-3-methylthiobutyramide] displayed a melting point of 158.5 to 159.6 °C.

As to `O=C(NO)[C@@H](Cc1ccc(O)cc1)NS(=O)(=O)N1CCN(c2ccc(Cl)cn2)CC1` [compound 103, N-hydroxy-2-(R)-{[4-(5-chloropyridin-2-yl)piperazine-1-sulfonyl]amino}-3-(4-hydroxyphenyl)propionamide], the melting point was determined as 142 °C.

For `CC(C)[C@H](C(=O)NO)N(CCCc1cccnc1)S(=O)(=O)N1CCC(Oc2ccc(Br)cc2)CC1` [compound 105], the concentration for half-maximal inhibition (IC50) in series [1] came out at 129 nM; in series [2], 0.59 nM.

With `C[C@H](NS(=O)(=O)N1CCC(C(=O)c2ccc(Cl)cc2)CC1)C(=O)NO` [compound 125, N-hydroxy-2-(S)-{[4-(4-chlorobenzoyl)piperidine-1-sulfonyl]amino}propionamide], the melting point was 201.2 to 201.8 °C.

The compound `CC(C)[C@@H](NS(=O)(=O)N1CCC(c2ncc(-c3ccccc3)s2)CC1)C(=O)NO` [compound 136, N-hydroxy-2-(R)-{[4-(5-phenylthiazol-2-yl)piperidine-1-sulfonyl]amino}-3-methylbutyramide] registered a melting point of 120 to 122.1 °C.

`C[C@@H](NS(=O)(=O)N1CCC(C(=O)c2ccc(Oc3ccccc3)cc2)CC1)C(=O)NO` [compound 148, N-hydroxy-2-(R)-{[4-(4-phenoxybenzoyl)piperidine-1-sulfonyl]amino}propionamide]: the melting point lay in the range of 202 to 205 °C.

With `C[C@@H](NS(=O)(=O)N1CCN(C(=O)Nc2ccc(Cl)cc2)CC1)C(=O)NO` [compound 177, N-hydroxy-2-(R)-{[4-(4-chlorophenylaminocarbonyl)piperazine-1-sulfonyl]amino}propionamide], the IC50 in series [1] came to 9300 nM; in series [2], 1.6 nM.

`CC(C)[C@@H](NS(=O)(=O)N1CCC(Oc2cccc(Cl)n2)CC1)C(=O)NO` [compound 183, N-hydroxy-2-(R)-{[4-(6-chloropyridin-2-yloxy)piperidine-1-sulfonyl]amino}-3-methylbutyramide] came in with a melting point of 81 to 96 °C.

Consider `O=C(NO)[C@H](NS(=O)(=O)N1CCC(Oc2ccc(Cl)cn2)CC1)C1CCCCC1` [compound 207, N-hydroxy-2-(R)-{[4-(5-chloropyridin-2-yloxy)piperidine-1-sulfonyl]amino}-2-cyclohexylacetamide], for which the melting point lay in the range of 171.1 to 171.4 °C.

`C[C@@H](NS(=O)(=O)N1CCN(C(=O)Nc2ccc(Oc3ccccc3)cc2)CC1)C(=O)NO` [compound 213, N-hydroxy-2-(R)-{[4-(4-phenoxyphenylaminocarbonyl)piperazine-1-sulfonyl]amino}propionamide] gave a melting point of 119 to 122 °C.

In the case of `O=C(NO)[C@H](NS(=O)(=O)N1CCC(c2ccc(F)cc2)CC1)c1ccc(F)cc1` [compound 230, N-hydroxy-2-(R)-{[4-(4-fluorophenyl)piperidine-1-sulfonyl]amino}-2-(4-fluorophenyl)acetamide], the melting point is 90 to 92 °C.

As for `O=C(NO)[C@H]1CCCCN1S(=O)(=O)N1CCCC1` [compound 232, N-hydroxy-1-(pyrrolidine-1-sulfonyl)piperidine-2-(R)-carboxamide], the melting point lay within 142 to 144 °C.

Turning to `N#Cc1ccc2[nH]cc(C3CCN(S(=O)(=O)N4CCCC[C@@H]4C(=O)NO)CC3)c2c1` [compound 294], the results for the half-maximal inhibitory concentration (IC50) in series [1] and in series [2] were above 50000 nM and 340 nM, respectively.

Turning to `CN(C)C(=O)N1CCN(S(=O)(=O)N2CCC(C(=O)c3ccc(Cl)cc3)CC2)[C@@H](C(=O)NO)C1` [compound 298], the IC50 in series [1] was found to be 130 nM; in series [2] it was 0.2 nM.

Regarding `CN(C)S(=O)(=O)N1CCN(S(=O)(=O)N2CCC(C(=O)c3ccc(Cl)cc3)CC2)[C@@H](C(=O)NO)C1` [compound 315], the IC50 in series [2] turned out to be 0.1 nM.

The compound `O=C(NO)C1(NS(=O)(=O)N2CCC(Oc3ccccc3)CC2)CCCC1` [compound 337, N-hydroxy-1-{[(4-phenoxy)piperidine-1-sulfonyl]amino}cyclopentane-1-carboxamide] had a melting point of 124.5 to 125.5 °C.

For the compound `O=C(NO)C1(NS(=O)(=O)N2CCN(c3ccc(Cl)cc3)CC2)CCOCC1` [compound 339, N-hydroxy-4-{[4-(4-chlorophenyl)piperazine-1-sulfonyl]amino}tetrahydropyran-4-carboxamide], the melting point lay within 192.5 to 192.7 °C.

As for `O=C(NO)C1(NS(=O)(=O)N2CCN(c3ccc(Cl)cn3)CC2)CCCCC1` [compound 342], the IC50 is 170 nM in series [1] and 2.1 nM in series [2].

Compound `CC(C)(NS(=O)(=O)N1CCC(C(=O)c2ccc(Cl)cc2)CC1)C(=O)NO` [compound 351, N-hydroxy-2-{[4-(4-chlorobenzoyl)piperidine-1-sulfonyl]amino}-2-methylpropionamide] had a melting point of 185.7 to 186.7 °C.

As to `CN(Cc1ccccc1)S(=O)(=O)N(CC(=O)NO)Cc1ccccc1` [compound 355], the results for the IC50 in series [1] and in series [2] were 650 nM and 56 nM, respectively.

For the compound `C[C@@H](NS(=O)(=O)N1CCN(c2ccc(Cl)cc2)CC1)C(=O)O` [compound 414], the concentration for half-maximal inhibition (IC50) in series [1] was above 50000 nM; in series [2], 3400 nM.

In the case of `CN(Cc1ccccc1)S(=O)(=O)N(CC(=O)O)Cc1ccccc1` [compound 430], the IC50 in series [1] came out at 2200 nM; in series [2], 890 nM.

Turning to `C[C@H](C(=O)O)N(Cc1ccccc1)S(=O)(=O)NCc1ccccc1` [compound 431], the results for the IC50 in series [1] and in series [2] were above 50000 nM and 6500 nM, respectively.
